Assay results taken from PubChem BioAssay AID2060624 (Molecular Pharmacology Branch, DTP, NCI, 2025).

Test system: 217524-143-R1-J4-PDC spheroids with HUVEC/MSC, viability
Assay: Anticancer human tumor 217524-143-R1-J4-PDC patient-derived pancreatic carcinoma cell line growth inhibition [CLK]
Conditions: for IC50: curve of first compound; for viability, T/C: stronger effect = lower value
Text: A high-throughput screen of multi-cell type tumor spheroids was designed to identify active combinations of […] and targeted small molecules. Complex spheroids include a stromal component modeled by human endothelial cells (HUVEC) and fibroblasts modeled by human mesenchymal stem cells (MSCs). The concentration ranges selected for each drug and investigational agent were based upon clinically achievable concentrations if the clinical Cmax of the agent was known.
Compounds. The drugs and investigational agents: cirtuvivint (SM08502; NSC835563), CC-671 (NSC850746), vemurafenib (NSC761431), tapotoclax (NSC804041), sotorasib (NSC818433), adagrasib (NSC831453), MRTX-1133 (NSC836407), BAY2416964 (NSC825713), copanlisib (NSC816437), inavolisib (NSC800729), abemaciclib (NSC768073), osimertinib (NSC779217), entinostat (NSC756642), eltanexor (KPT-8602, NSC794443), venetoclax (NSC766270), ceralasertib (NSC777638), bortezomib (NSC756655), olaparib (NSC753686), talazoparib (NSC767125), alisertib (NSC759677), peposertib (NSC802822), gemcitabine (NSC613327), 5-fluorouracil (NSC19893), SN-38 (NSC673596), oxaliplatin (NSC266046), paclitaxel (NSC125973), and doxorubicin (NSC123127), were obtained from the National Cancer Institute (NCI) Developmental Therapeutics Program Chemical Repository. The FDA-approved anticancer drug set is available from the Developmental Therapeutics Program at https://dtp.cancer.gov/organization/dscb/obtaining/available plates.htm. […] The stock solutions were prepared in dimethyl sulfoxide (DMSO, Sigma-Aldrich, St. Louis, MO, cat. D2650), except for the platinum complexes which were prepared in saline (Quality Biological, Gaithersburg, MD, cat. 114-055-101), at 800-fold the tested concentration and stored at -70 degrees C prior to their use. All drugs and investigational agents were tested over a range starting from a high concentration at or near the clinical Cmax and decreasing in half-log increments. If the clinical Cmax for an agent had not been determined, the highest concentration tested was 10 microM.
Cell Culture. All cells were maintained in an incubator at 37 degrees C and 5% CO2 with 95% humidity. The PDC lines were cultured according to standard operating procedures established by the NCI PDMR. Briefly, all PDCs were thawed and cultured in Matrigel-coated flasks prepared with a working solution of 1X Ham's F-12 nutrient mix, without supplementation (Invitrogen, Waltham, MA, cat. 11765054), 100 U/mL penicillin-streptomycin (Invitrogen, cat. 15140122), and 2.5% Matrigel (Corning Inc., Corning, NY, cat. 354248) for the first three passages. The 947758-054-R-J2-PDC line was cultured in 6B/Colon 1A media, which includes advanced DMEM/F-12 (Thermo Fisher Scientific, cat. 12634028), 10 mM HEPES (Thermo Fisher Scientific, cat. 15630080), 1X GlutaMAX supplement (Thermo Fisher Scientific, cat. 35050061), 0.1 mg/mL primocin (InvivoGen, cat. ant-pm-2), 10% defined fetal bovine serum, heat inactivated (HyClone Laboratories Inc., cat. SH30070.03HI), 1.25 mM N-Acetyl-L-cysteine (Sigma-Aldrich, cat. A9165), 10 mM nicotinamide (Sigma-Aldrich, cat. N0636), 1X B-27 supplement (Thermo Fisher Scientific, cat. 17504044), 1X N-2 supplement (Thermo Fisher Scientific, cat. 17502048), and 10 microM Y-27632 dihydrochloride (Tocris Bioscience, cat. 1254). The 876862-298-R-J1-PDC was cultured in 6E media, which includes all 6B/Colon 1A media components plus 50% L-WRN conditioned media (ATCC, cat. CRL-3276), 50 ng/mL recombinant human EGF recombinant protein (hEGF; Thermo Fisher Scientific, cat. PHG0311), 10 ng/mL recombinant human fibroblast growth factor 10 (hGFG-10; PeproTech, cat. 100-26), 1 ng/mL recombinant human fibroblast growth factor 2 (hFGF-2; PeproTech, cat. 100-18B), and 1 µM prostaglandin E2 (PGE2; Tocris, cat. 2296). The 227483-062-R1-J1-PDC line was cultured in Panc media, containing all 6E components except hFGF-2, with the addition of 500 nM SB-431542 (Selleckchem, cat. S1067) and 10 nM gastrin (Tocris, cat. 3006). […]

[1] = second compound 0.0316 µM, first compound 0.0316 µM
[2] = second compound 0.0316 µM, first compound 0.1 µM
[3] = second compound 0.0316 µM, first compound 0.316 µM
[4] = second compound 0.0316 µM, first compound 1 µM
[5] = second compound 0.0316 µM, first compound 3.16 µM
[6] = second compound 0.0316 µM, first compound 10 µM
[7] = second compound 0.1 µM, first compound 0.0316 µM
[8] = second compound 0.1 µM, first compound 0.1 µM
[9] = second compound 0.1 µM, first compound 0.316 µM
[10] = second compound 0.1 µM, first compound 1 µM
[11] = second compound 0.1 µM, first compound 3.16 µM
[12] = second compound 0.1 µM, first compound 10 µM
[13] = second compound 0.316 µM, first compound 0.0316 µM
[14] = second compound 0.316 µM, first compound 0.1 µM
[15] = second compound 0.316 µM, first compound 0.316 µM
[16] = second compound 0.316 µM, first compound 1 µM
[17] = second compound 0.316 µM, first compound 3.16 µM
[18] = second compound 0.316 µM, first compound 10 µM
[19] = second compound 1 µM, first compound 0.0316 µM
[20] = second compound 1 µM, first compound 0.1 µM
[21] = second compound 1 µM, first compound 0.316 µM
[22] = second compound 1 µM, first compound 1 µM
[23] = second compound 1 µM, first compound 3.16 µM
[24] = second compound 1 µM, first compound 10 µM
[25] = second compound 3.16 µM, first compound 0.0316 µM
[26] = second compound 3.16 µM, first compound 0.1 µM
[27] = second compound 3.16 µM, first compound 0.316 µM
[28] = second compound 3.16 µM, first compound 1 µM
[29] = second compound 3.16 µM, first compound 3.16 µM
[30] = second compound 3.16 µM, first compound 10 µM
[31] = second compound 10 µM, first compound 0.0316 µM
[32] = second compound 10 µM, first compound 0.1 µM
[33] = second compound 10 µM, first compound 0.316 µM
[34] = second compound 10 µM, first compound 1 µM
[35] = second compound 10 µM, first compound 3.16 µM
[36] = second compound 10 µM, first compound 10 µM
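Further: spheroids exposed to agents for seven days before reading.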
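Wherever viability, T/C is given: 100% = DMSO vehicle control viability.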

For `C=C(F)C(=O)N1CCN(c2nc(OCC3CCCN3C)nc3c2CCN(c2cccc4cccc(Cl)c24)C3)CC1CC#N` (centres undefined) + CN1CCN(c2cc(C(=O)Nc3cc4cc(-c5cnn(C)c5)ccc4cn3)ccn2)CC1, the IC50 (second compound 0.0316 µM) was 5100 nM, the IC50 (second compound 0.1 µM) was 2300 nM and the IC50 (second compound 0.316 µM) was < 31.6 nM. The IC50 (second compound 1 µM) was < 31.6 nM, the IC50 (second compound 3.16 µM) was < 31.6 nM and the IC50 (second compound 10 µM) was < 31.6 nM. The viability, T/C [1] was 71.2%, the viability, T/C [2] was 89.9% and the viability, T/C [3] was 91.9%. It also gave a viability, T/C [4] of 87.9%, a viability, T/C [5] of 82.2% and a viability, T/C [6] of 4.47%. The viability, T/C [7] was 61.6%, the viability, T/C [8] was 54.7% and the viability, T/C [9] was 53.9%. The viability, T/C [10] was 50.8%, the viability, T/C [11] was 49.1% and the viability, T/C [12] was 3.1%. For the same compound, the viability, T/C [13] was 25%, the viability, T/C [14] was 24.5% and the viability, T/C [15] was 31%. For the same compound, the viability, T/C [16] was 22.8%, the viability, T/C [17] was 18.4% and the viability, T/C [18] was 1.05%. It also gave a viability, T/C [19] of 1.86%, a viability, T/C [20] of 2.01% and a viability, T/C [21] of 2.61%. For the same compound, the viability, T/C [22] was 1.74%, the viability, T/C [23] was 1.47% and the viability, T/C [24] was 0.1%. It also gave a viability, T/C [25] of 0.87%, a viability, T/C [26] of 1.12% and a viability, T/C [27] of 0.66%. For the same compound, the viability, T/C [28] was 0.73%, the viability, T/C [29] was 0.71% and the viability, T/C [30] was 0.13%. It also gave a viability, T/C [31] of 0.3%, a viability, T/C [32] of 0.27% and a viability, T/C [33] of 0.3%. The viability, T/C [34] was 0.31%, the viability, T/C [35] was 0.44% and the viability, T/C [36] was 0.22%.
In the case of `C=CC(=O)N1CCN(c2nc(=O)n(-c3c(C)ccnc3C(C)C)c3nc(-c4c(O)cccc4F)c(F)cc23)C(C)C1` (centres undefined) + CN1CCN(c2cc(C(=O)Nc3cc4cc(-c5cnn(C)c5)ccc4cn3)ccn2)CC1, the IC50 (second compound 0.0316 µM) is reported as > 10000 nM, the IC50 (second compound 0.1 µM) is reported as > 10000 nM and the IC50 (second compound 0.316 µM) is reported as < 31.6 nM. The IC50 (second compound 1 µM) was < 31.6 nM, the IC50 (second compound 3.16 µM) was < 31.6 nM and the IC50 (second compound 10 µM) was < 31.6 nM. The viability, T/C [1] was 93.4%, the viability, T/C [2] was 71.5% and the viability, T/C [3] was 67.1%. It also gave a viability, T/C [4] of 90.5%, a viability, T/C [5] of 111% and a viability, T/C [6] of 95.4%. The viability, T/C [7] was 62.3%, the viability, T/C [8] was 59% and the viability, T/C [9] was 58.7%. For the same compound, the viability, T/C [10] was 64.9%, the viability, T/C [11] was 66.7% and the viability, T/C [12] was 57%. For the same compound, the viability, T/C [13] was 25.8%, the viability, T/C [14] was 22.5% and the viability, T/C [15] was 27%. The viability, T/C [16] was 30.8%, the viability, T/C [17] was 31.1% and the viability, T/C [18] was 22.9%. It also gave a viability, T/C [19] of 1.96%, a viability, T/C [20] of 2.92% and a viability, T/C [21] of 1.65%. The viability, T/C [22] was 3.19%, the viability, T/C [23] was 2.93% and the viability, T/C [24] was 2.27%. The viability, T/C [25] was 1.06%, the viability, T/C [26] was 1.37% and the viability, T/C [27] was 1.15%. It also gave a viability, T/C [28] of 0.96%, a viability, T/C [29] of 1.76% and a viability, T/C [30] of 1.78%. For the same compound, the viability, T/C [31] was 0.21%, the viability, T/C [32] was 0.25% and the viability, T/C [33] was 0.24%. For the same compound, the viability, T/C [34] was 0.29%, the viability, T/C [35] was 0.41% and the viability, T/C [36] was 0.29%.
